Values of other authors in PMC8894159, “Paltusotine, a novel oral once-daily nonpeptide SST2 receptor agonist, suppresses GH and IGF-1 in healthy volunteers” (Pituitary, 2022).

Assays:
[1] = test system: IGF-1; set-up: method as in PMID 25664604; conditions: twice-daily oral preparation; patients previously controlled on depot preparations; cited from earlier work
[2] = set-up: method as in PMID 25260838; conditions: patients taking pasireotide; cited from earlier work

| Substance | patients maintaining IGF-1 control [1] [%] | patients with hyperglycemia/diabetes [2] |
| --- | --- | --- |
| octreotide | 58 |  |
| pasireotide |  | approximately 57% |
